Measurements from PubChem BioAssay (NCI).
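Assay format: 96-well plates, 48-hour exposure. Definition used: TGI = concentration required for complete inhibition of growth.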

What was measured:
Test in all cases: NCI tumour cell line growth inhibition, 48 h
[1] = system: PC-3 prostate
[2] = system: HT29 colon
[3] = system: HOP-62 NSCLC
[4] = system: IGROV1 ovarian
[5] = system: M14 melanoma
[6] = system: HCC-2998 colon
[7] = system: COLO 205 colon
[8] = system: HCT-116 colon
[9] = system: U251 CNS
[10] = system: K-562 leukemia
[11] = system: A498 renal
[12] = system: SK-OV-3 ovarian
[13] = system: EKVX NSCLC
[14] = system: MDA-MB-231 breast
[15] = system: OVCAR-5 ovarian
[16] = system: MOLT-4 leukemia
[17] = system: NCI-H460 lung
[18] = system: HCT-15 colon
[19] = system: MDA-N
[20] = system: MCF7 breast
[21] = system: OVCAR-4 ovarian
[22] = system: SW-620 colon
[23] = system: MDA-MB-435
[24] = system: SK-MEL-28 melanoma
[25] = system: RPMI-8226 leukemia
[26] = system: UO-31 renal
[27] = system: MALME-3M melanoma
[28] = system: 786-0 renal
[29] = system: SF-295 CNS
[30] = system: UACC-257 melanoma
[31] = system: HOP-92 NSCLC
[32] = system: A549 NSCLC
[33] = system: NCI-H226 lung
[34] = system: UACC-62 melanoma
[35] = system: TK-10 renal
[36] = system: NCI-H23 lung
[37] = system: OVCAR-8 ovarian
[38] = system: HS 578T breast
[39] = system: CCRF-CEM leukemia
[40] = system: SNB-75 CNS
[41] = system: SN12C renal
[42] = system: NCI-H522 lung
[43] = system: CAKI-1 renal
[44] = system: SR leukemia
[45] = system: LOX IMVI melanoma
[46] = system: SK-MEL-5 melanoma
[47] = system: RXF 393 renal
[48] = system: BT-549 breast
[49] = system: SF-268 CNS
[50] = system: KM12 colon
[51] = system: SNB-19 CNS
[52] = system: ACHN renal
[53] = system: DU-145 prostate
[54] = system: NCI/ADR-RES ovarian
[55] = system: OVCAR-3 ovarian
[56] = system: SF-539 CNS
[57] = system: SK-MEL-2 melanoma

Measured: TGI

O=C1C(=C2SC(c3ccccc3)(c3ccccc3)c3ccccc32)C(=O)c2ccccc21
> 100 µM: [1] | [2] | [3] | [4] | [5] | [6] | [7] | [8] | [9] | [10] | [11] | [12] | [13] | [14] | [15] | [16] | [17] | [18] | [19] | [20] | [21] | [22] | [23] | [24] | [25] | [26] | [27] | [28] | [29] | [30] | [31] | [32] | [33] | [34] | [35] | [36] | [37] | [38] | [39] | [40] | [41] | [42] | [43] | [44] | [45] | [46] | [47] | [48] | [49] | [50] | [51] | [52] | [53] | [54] | [55] | [56]

FC(F)(F)c1ccc(C2=N/S(c3ccccc3)=N\C(c3ccc(C(F)(F)F)cc3)=N/S(c3ccccc3)=N\2)cc1 (stereo not given)
> 100 µM: [1] | [2] | [4] | [5] | [6] | [7] | [8] | [9] | [10] | [12] | [13] | [14] | [15] | [16] | [17] | [18] | [19] | [57] | [20] | [21] | [22] | [23] | [24] | [25] | [26] | [27] | [28] | [29] | [30] | [31] | [32] | [34] | [35] | [36] | [37] | [38] | [39] | [40] | [41] | [42] | [43] | [44] | [45] | [46] | [47] | [48] | [49] | [50] | [51] | [52] | [53] | [54] | [55] | [56]
